Here are results for four compounds from BindingDB's records for doi:10.1016/j.bmc.2015.09.025 (Sookmyung Women'S University, 2015).

A short description of this test: Antiosteoclast activity in mouse BMM cells assessed as reduction of RANKL-induced osteoclasts differentiation by measuring TRAP positive multinucleated cells after 4 days by light microscopy.

A word on the IC50: it is the concentration that inhibits the measured activity by half.

Take `CCc1ccc(Nc2nc3cc(NC(=O)CCCCOc4ccc(/C(N)=N/O)cc4)ccc3o2)cc1`: the IC50 amounted to 1310 nM.
Take `N/C(=N\O)c1ccc(OCCCCC(=O)Nc2ccc3oc(Nc4ccccc4)nc3c2)cc1`: the concentration for half-maximal inhibition (IC50) turned out to be 560 nM.
As for `COc1ccc(Nc2nc3cc(NC(=O)CCCCOc4ccc(/C(N)=N/O)cc4)ccc3o2)cc1`, the IC50 came to 580 nM.
`CC(c1cc2ccccc2s1)N(O)C(N)=O` (racemic) [Leutrol]: the IC50 is greater than 20000 nM.
